# Laboratory results taken from publication PMC6084929, “Differential effects of angiotensin II type I receptor blockers on reducing intraocular pressure and TGFβ signaling in the mouse retina” (PLoS ONE, 2018).
# Tests used:
# [1] = system: rat model with IOP elevation; parameters: method as in PMID 19608537; details: oral; cited from earlier work
# [2] = system: mouse model of normotensive glaucoma; parameters: method as in PMID 25032856; details: cited from earlier work
# [3] = system: C57BL/6J mice; assay: Systolic BP by tail-cuff method in ARB-treated mice; type: in vivo, mouse; details: 2 g drug/kg chow, day 3; p < 10^-4
# Procedure: BP was measured by the tail-cuff method (BP 2000 Blood Pressure Analysis System, Visitech Systems, Apex, NC, USA) according to manufacturer recommendations and as previously described by an operator blinded to the treatment status of the mice. In brief, mice were restrained and their tail placed through an inflatable tail cuff held in place by adhesive tape. […] Mice were conditioned to the system prior to experimental measurements by being subjected to the full recording procedure daily for several days. Acclimation and BP measurements were performed between 9:00 and 11:00 a.m. Since diastolic measurements are inherently inaccurate with this method, only systolic BP is reported here. […] Sample sizes were not pre-determined by statistical methods, but are similar to or exceed numbers typical of similar experiments. The IOP changes of treated mice relative to the IOP changes of normal chow fed mice were presented with mean and 95% confidence interval based on t-statistics. A linear regression model for BP change from baseline was used to study effects of ARBs on BP, adjusting for baseline BP. For comparing IOP in groups of mice untreated or treated with ARBs for 3 and 7 days, a mixed effects model that included baseline IOP, left versus right eye, time of measurement and interaction between time and drug with random effects of intercept and slope within individual mice was used, adjusting for correlation between left and right eye within the same mouse, as well as repeated measurements over time. A one-way ANOVA was used for comparing chow pSmad2 fluorescence of mice untreated or treated with ARBs. The models for BP, IOP, and pSmad2 fluorescence were followed by Dunnett’s method for multiple comparisons correction. Differences in the change in IOP for each drug, relative to change in IOP of normal-fed control were evaluated at day 3 and day 7 of treatment, and differences in the rate of change in IOP were evaluated as the slope of the line defined by relative change at days 3 and 7. […]
# [4] = system: TGFβ signaling (pSmad2); assay: pSmad2 immunohistochemistry of the retina (RGC layer) as read-out of TGFβ signaling; type: in vivo, mouse; details: 2 g/kg in chow, 7 days, 3 days
# Procedure: Eyes were enucleated and post-fixed in PBS/PFA for an additional 24–48 h and embedded in paraffin. Five micron-thick sections were deparaffinized, incubated at 90°C for 30 mins in 10 mM sodium citrate buffer, pH 6.0 for epitope retrieval and then incubated for 2 h at room temperature in blocking solution (PBS/5% normal donkey serum/1% BSA/0.1% Tween-20). Sections were then incubated with rabbit polyclonal antibody to pSmad2 (1:100, Thermo Fisher Scientific, MA, USA) in blocking solution overnight at 4°C in a humidified chamber. Following three 5 min washes in wash solution (PBS/0.1% Tween-20), sections were incubated in AlexaFluor-546 labeled donkey anti-rabbit IgG diluted 1:1000 in blocking solution for 2 h at room temperature in a dark humidified chamber. Sections were washed again three times for 5 mins each in wash solution and cover-slipped with Prolong Gold Antifade with DAPI mounting medium (Thermo Fisher Scientific). Sections were imaged using a Nikon AZ 100M upright, wide-field microscope using a 5x Plan Fluor/0.5 NA air objective and captured with a Nikon DS-Ri1 color camera (Nikon Instruments, Melville, NY, USA). Retinal images were acquired adjacent to the optic nerve head. Immunostaining and imaging experiments using the right eye of each mouse were carried out in batches of sections that included samples from two vehicle-fed mice and two samples each from losartan, irbesartan and telmisartan-fed mice using identical image acquisition parameters within each batch. Immunostaining and imaging experiments were carried out twice for each batch of samples. Mean fluorescence intensity of pSmad2 immunofluorescence was quantified using FIJI (ImageJ) biological image analysis package. Background-subtracted mean fluorescence intensity of the RGC layer was determined by subtracting the mean background intensity within the adjacent inner plexiform layer from the mean fluorescence intensity within a mask drawn around the RGC layer. Normalized background-subtracted mean fluorescence intensity within each batch of samples was determined by dividing the background-subtracted mean fluorescence intensity of each sample by the average of the background-subtracted mean fluorescence intensities of the two vehicle-fed control samples. For each mouse, normalized background-subtracted mean fluorescence intensity was determined as the average of duplicate experiments and is presented as normalized mean fluorescence.
# [5] = system: C57BL/6J mice; assay: IOP measurement with Tonolab rebound tonometer in ARB-treated mice; type: in vivo, mouse; details: for Change in IOP compared to normal chow control / Average reduction of the median IOP / Rate of IOP reduction compared to control: 2 g/kg in chow; for Change in IOP compared to normal chow control: after 3 and 7 days of treatment; for Average reduction of the median IOP: compared to day 0; for Rate of IOP reduction compared to control: slope between days 3 and 7; for Median IOP at day 0: before start of chow treatment, by treatment group
# Procedure: IOP of mice anesthetized with 2.5% isoflurane in oxygen delivered at 1.5 L/min by an inhalation anesthesia system (Vet Equip, Livermore, CA, USA) was measured using a Tonolab rebound tonometer (Icare, Vantaa, Finland) following manufacturer’s recommendations by an operator blinded to the treatment status of the mice. Measurements were performed within 3 mins of immobilization to minimize isoflurane-induced IOP changes and at the same time of day (1:00–3:00 p.m.) to avoid diurnal variation.
# Sample sizes were not pre-determined by statistical methods, but are similar to or exceed numbers typical of similar experiments. The IOP changes of treated mice relative to the IOP changes of normal chow fed mice were presented with mean and 95% confidence interval based on t-statistics. A linear regression model for BP change from baseline was used to study effects of ARBs on BP, adjusting for baseline BP. For comparing IOP in groups of mice untreated or treated with ARBs for 3 and 7 days, a mixed effects model that included baseline IOP, left versus right eye, time of measurement and interaction between time and drug with random effects of intercept and slope within individual mice was used, adjusting for correlation between left and right eye within the same mouse, as well as repeated measurements over time. A one-way ANOVA was used for comparing chow pSmad2 fluorescence of mice untreated or treated with ARBs. The models for BP, IOP, and pSmad2 fluorescence were followed by Dunnett’s method for multiple comparisons correction. Differences in the change in IOP for each drug, relative to change in IOP of normal-fed control were evaluated at day 3 and day 7 of treatment, and differences in the rate of change in IOP were evaluated as the slope of the line defined by relative change at days 3 and 7. Corrected p-values < 0.05 were considered significant. Linear regression and mixed effect model analysis was performed with R 3.4.1 (R Core Team. R: A language and environment for statistical computing. R Foundation for Statistical Computing, Vienna, Austria. URL http://www.R-project.org/, 2013). All other statistical analysis was performed using GraphPad Prism version 7.00 for Windows software (GraphPad Software, La Jolla, CA, USA).
# [6] = Solubilization in unbuffered water; type: physicochemical; details: attempt to solubilize for drinking water delivery
# [7] = molecular target: AT1R; parameters: method as in PMID 20603272; details: cited from earlier work
# [8] = system: human glaucoma patients with elevated IOP, and normal controls; details: 50 mg oral dose; cited from earlier work
# [9] = system: rabbit eyes with induced IOP elevation; parameters: method as in PMID 10942157; details: eye drops of 0.1% losartan in saline; cited from earlier work
# [10] = system: CD1 mice; details: cited from earlier work
# [11] = system: monkeys with laser-induced IOP elevation; parameters: method as in PMID 15862169; details: cited from earlier work
# [12] = system: rabbits with experimental and inherited elevated IOP; parameters: method as in PMID 11840352; details: cited from earlier work
# [13] = parameters: method as in PMID 23487168; details: cited from earlier work
Structure (SMILES),Systolic BP compared to mice fed normal chow [3],Effect on pSmad2 fluorescence of the RGC layer [4],Change in IOP compared to normal chow control [5],Average reduction of the median IOP [5],Rate of IOP reduction compared to control [5],Median IOP at day 0 [5],Solubility in unbuffered water [6],Kd [7],also measured
CCOc1nc2cccc(C(=O)O)c2n1Cc1ccc(-c2ccccc2-c2nnn[nH]2)cc1 [candesartan],–,–,–,–,–,–,–,–,Effect on IOP [1]: did not affect IOP; Effect on RGC loss [1]: reduced RGC loss; Effect on IOP ([2]; 10 mg/kg/day by oral gavage): no effect on IOP; Effect on RGCs and inner retina ([2]; orally administered): reduced loss of RGCs and thinning of the inner retina
CCCCC1=NC2(CCCC2)C(=O)N1Cc1ccc(-c2ccccc2-c2nnn[nH]2)cc1 [irbesartan],significantly lower BP,no significant effect,significant decreases in IOP,15.4%,significantly greater than control,17.0,readily precipitated out of solution,~2 nM,–
"CCCCc1nc(Cl)c(CO)n1Cc1ccc(-c2ccccc2-c2nn[nH]n2)cc1 [losartan, Losartan potassium]",significantly lower BP,no significant effect,did not significantly lower IOP,–,no significant effect,16.9,–,~10 nM,"Mean reduction of IOP [8]: ≤ 16%; Effect on IOP [9]: IOP-lowering effects; Effect on IOP ([10]; 0.6 g/L in drinking water, normotensive eyes or eyes with microbead-induced elevated IOP): no effect on IOP; Effect on RGCs ([10]; oral via drinking water, eyes with elevated IOP induced by microbead injection): neuroprotective effect for RGCs; IOP after losartan treatment ([5]; 1.2 g/L losartan in drinking water, 3 days, 10 female C57BL/6 mice 1 year of age, right eye, mean +/-SD, p = 0.4): 15.4 +/- 1.9 mmHg; Effect on IOP ([5]; 1.2 g/L losartan in drinking water, 3 days, normal mice): did not affect IOP; IOP before losartan treatment (baseline) ([5]; 1.2 g/L losartan in drinking water, 10 female C57BL/6 mice 1 year of age, right eye, mean +/-SD): 14.8 +/-1.4 mmHg"
CCCc1nc(C(C)(C)O)c(C(=O)O)n1Cc1ccc(-c2ccccc2-c2nnn[nH]2)cc1 [olmesartan],–,–,–,–,–,–,–,–,Effect on IOP [11]: IOP-lowering effects; Effect on IOP [12]: IOP-lowering effects
CCCc1nc2c(C)cc(-c3nc4ccccc4n3C)cc2n1Cc1ccc(-c2ccccc2C(=O)O)cc1 [telmisartan],significantly lower BP,significantly reduced,significant decreases in IOP,13.3%,significantly greater than control,16.7,readily precipitated out of solution,–,Reduction of pSmad2 fluorescence in the RGC layer compared to normal fed mice ([4]; p = 0.034): 70%; Lipophilicity [13]: most lipophilic ARB
